# Reference: patent US20230126893A1, “[(1,4,5-TRISUBSTITUTED-1H-PYRAZOL-3-YL)SULFANYL]ACETIC ACID DERIVATIVES, SALTS THEREOF, AND USE THEREOF AS ACTIVE HERBICIDAL INGREDIENTS” (BAYER AKTIENGESELLSCHAFT, priority 2020, published 2023)
# Legend:
# Format in all cases: in vivo
# [1] = test system: Tripleurospermum inodorum; assay: Pre-emergence herbicidal effect against MATIN; conditions: 1280 g/ha, visual score after 3 weeks, 100% = plants have died, 0% = like control plants
# Excerpt: (§1) 1. Pre-emergence herbicidal effect and crop plant compatibility Seeds of monocotyledonous and dicotyledonous weed plants and crop plants are laid out in sandy loam soil in wood-fibre pots and covered with soil. The compounds of the invention, formulated in the form of wettable powders (WP) or as emulsion concentrates (EC), are then applied to the surface of the covering soil as aqueous suspension or emulsion at a water application rate equating to 600 to 800 L/ha with addition of 0.2% wetting agent. After the treatment, the pots are placed in a greenhouse and kept under good growth conditions for the trial plants. The damage to the test plants is scored visually after a test period of 3 weeks by comparison with untreated controls (herbicidal activity in percent (%): 100% activity=the plants have died, 0% activity=like control plants). [table]
# Bassia scoparia = assay: Post-emergence herbicidal effect against KCHSC; conditions: 1280 g/ha, visual assessment about 3 weeks after treatment, 100% = plants have died, 0% = like control plants
# Protocol: (§2) [table] 2. Post-emergence herbicidal effect and crop plant compatibility Seeds of monocotyledonous and dicotyledonous weed and crop plants are laid out in sandy loam soil in wood-fibre pots, covered with soil and cultivated in a greenhouse under good growth conditions. 2 to 3 weeks after sowing, the test plants are treated at the one-leaf stage. The compounds of the invention, formulated in the form of wettable powders (WP) or as emulsion concentrates (EC), are then sprayed onto the green parts of the plants as aqueous suspension or emulsion at a water application rate equating to 600 to 800 l/ha with addition of 0.2% wetting agent. After the test plants have been left to stand in the greenhouse under optimal growth conditions for about 3 weeks, the action of the preparations is assessed visually in comparison to untreated controls (herbicidal action in percent (%): 100% activity=the plants have died, 0% activity=like control plants).
# Poa annua [2] = assay: Pre-emergence herbicidal effect against POAAN; conditions: 1280 g/ha, visual score after 3 weeks, 100% = plants have died, 0% = like control plants
# Excerpt: as §1
# Alopecurus myosuroides [3] = assay: Pre-emergence herbicidal effect against ALOMY; conditions: 1280 g/ha, visual score after 3 weeks, 100% = plants have died, 0% = like control plants
# Excerpt: as §1
# Veronica persica [4] = assay: Post-emergence herbicidal effect against VERPE; conditions: 1280 g/ha, visual assessment about 3 weeks after treatment, 100% = plants have died, 0% = like control plants
# Protocol: as §2
# Alopecurus myosuroides [5] = assay: Post-emergence herbicidal effect against ALOMY; conditions: 1280 g/ha, visual score after about 3 weeks, 100% = plants have died, 0% = like control plants
# Protocol: as §2
# Veronica persica [6] = assay: Pre-emergence herbicidal effect against VERPE; conditions: 1280 g/ha, visual score after 3 weeks, 100% = plants have died, 0% = like control plants
# Excerpt: as §1
# Poa annua [7] = assay: Post-emergence herbicidal effect against POAAN; conditions: 1280 g/ha, visual assessment about 3 weeks after treatment, 100% = plants have died, 0% = like control plants
# Protocol: as §2
# Setaria viridis [8] = assay: Pre-emergence herbicidal effect against SETVI; conditions: 1280 g/ha, visual score after 3 weeks, 100% = plants have died, 0% = like control plants
# Excerpt: as §1
# Echinochloa crus-galli [9] = assay: Pre-emergence herbicidal effect against ECHCG; conditions: 1280 g/ha, visual score after 3 weeks, 100% = plants have died, 0% = like control plants
# Excerpt: as §1
# Stellaria media [10] = assay: Post-emergence herbicidal effect against STEME; conditions: 1280 g/ha, visual assessment about 3 weeks after treatment, 100% = plants have died, 0% = like control plants
# Protocol: as §2
# Lolium rigidum = assay: Pre-emergence herbicidal effect against LOLRI; conditions: 1280 g/ha, visual score after 3 weeks, 100% = plants have died, 0% = like control plants
# Excerpt: as §1
# [11] = test system: Tripleurospermum inodorum; assay: Post-emergence herbicidal effect against MATIN; conditions: 1280 g/ha, visual assessment about 3 weeks after treatment, 100% = plants have died, 0% = like control plants
# Protocol: as §2
# Stellaria media [12] = assay: Pre-emergence herbicidal effect against STEME; conditions: 1280 g/ha, visual score after 3 weeks, 100% = plants have died, 0% = like control plants
# Excerpt: as §1
# Abutylon threophrasti = assay: Post-emergence herbicidal effect against ABUTH; conditions: 1280 g/ha, visual assessment about 3 weeks after treatment, 100% = plants have died, 0% = like control plants
# Protocol: as §2
# Digitaria sanguinalis [13] = assay: Pre-emergence herbicidal effect against DIGSA; conditions: 1280 g/ha, visual score after 3 weeks, 100% = plants have died, 0% = like control plants
# Excerpt: as §1
# Digitaria sanguinalis [14] = assay: Post-emergence herbicidal effect against DIGSA; conditions: 1280 g/ha, visual score after about 3 weeks, 100% = plants have died, 0% = like control plants
# Protocol: as §2
# Setaria viridis [15] = assay: Post-emergence herbicidal effect against SETVI; conditions: 1280 g/ha, visual assessment about 3 weeks after treatment, 100% = plants have died, 0% = like control plants
# Protocol: as §2
# Echinochloa crus-galli [16] = assay: Post-emergence herbicidal effect against ECHCG; conditions: 1280 g/ha, visual score after about 3 weeks, 100% = plants have died, 0% = like control plants
# Protocol: as §2
Compound,Pre-emergence action against MATIN [1] [%],Post-emergence action against KCHSC (Bassia scoparia) [%],Pre-emergence action against POAAN (Poa annua [2]) [%],Pre-emergence action against ALOMY (Alopecurus myosuroides [3]) [%],Post-emergence action against VERPE (Veronica persica [4]) [%],Post-emergence action against ALOMY (Alopecurus myosuroides [5]) [%],Pre-emergence action against VERPE (Veronica persica [6]) [%],Post-emergence action against POAAN (Poa annua [7]) [%],Pre-emergence action against SETVI (Setaria viridis [8]) [%],Pre-emergence action against ECHCG (Echinochloa crus-galli [9]) [%],Post-emergence action against STEME (Stellaria media [10]) [%],Pre-emergence action against LOLRI (Lolium rigidum) [%],Post-emergence action against MATIN [11] [%],Pre-emergence action against STEME (Stellaria media [12]) [%],Post-emergence action against ABUTH (Abutylon threophrasti) [%],Pre-emergence action against DIGSA (Digitaria sanguinalis [13]) [%],Post-emergence action against DIGSA (Digitaria sanguinalis [14]) [%],Post-emergence action against SETVI (Setaria viridis [15]) [%],Post-emergence action against ECHCG (Echinochloa crus-galli [16]) [%]
COC(=O)CN(C)C(=O)CSc1nn(-c2ccccc2F)c(-c2ccc(F)c(F)c2)c1Br [VII-011],90,90,100,90,90,90,90,–,–,–,–,–,–,–,–,–,–,–,–
CCOC(=O)CNC(=O)CSc1nn(-c2ccccc2F)c(-c2ccc(F)c(F)c2)c1Br [VII-003],100,–,100,–,90,100,100,100,100,100,90,100,90,100,–,–,–,–,–
CCOC(=O)CSc1nn(-c2ccc(Cl)cc2Cl)c(-c2ccc(F)c(F)c2)c1Br [Example I-026],100,–,–,–,90,–,–,–,–,–,–,–,–,–,–,–,–,–,–
COC(=O)CN(C)C(=O)CSc1nn(-c2ccccc2F)c(-c2cccnc2)c1Br [VII-008],–,90,90,–,90,–,–,–,–,–,–,–,–,–,90,–,–,–,–
CCOC(=O)CSc1nn(-c2ccccc2OC)c(-c2ccc(F)cc2)c1Br [Example I-023],100,–,100,90,90,–,100,–,90,–,–,–,–,100,–,100,–,–,–
CCOC(=O)CSc1nn(-c2ccc(F)cc2F)c(-c2ccc(F)c(F)c2)c1Br [Example I-027],100,90,100,–,100,100,90,90,100,–,90,90,–,100,–,100,100,–,–
COC(=O)CCNC(=O)CSc1nn(-c2ccccc2F)c(-c2cccnc2)c1Br [VII-006],90,90,100,90,90,90,90,100,90,90,–,–,90,90,–,–,–,90,–
CCOC(=O)CSc1nn(-c2ccccc2F)c(-c2ccc(Cl)nc2)c1Br [II-012],100,–,100,90,90,90,100,100,90,90,–,100,90,100,–,–,–,90,90
COC(=O)CNC(=O)CSc1nn(-c2ccccc2F)c(-c2ccccc2)c1Br [VII-005],100,100,100,90,100,100,100,100,90,90,90,90,100,100,100,–,–,100,90
CCOC(=O)CSc1nn(-c2ccccc2F)c(-c2ccc(Br)nc2)c1Br [II-015],100,–,90,–,90,–,–,90,–,–,–,–,90,100,90,–,–,–,–
O=C(O)CSc1nn(-c2ccccc2F)c(-c2ccc(Cl)nc2)c1Br [II-016],100,–,100,90,100,100,90,100,100,100,100,100,100,100,–,100,100,–,100
COC(=O)CNC(=O)CSc1nn(-c2ccccc2F)c(-c2ccc(F)c(F)c2)c1[N+](=O)[O-] [VII-004],–,–,100,–,–,–,–,–,–,–,–,–,–,100,–,–,–,–,–
O=C(O)CSc1nn(-c2ccccc2F)c(-c2cnccn2)c1Br [VI-002],90,–,100,–,90,90,–,–,90,90,–,–,90,90,–,–,–,–,90
O=C(O)CSc1nn(-c2cccc(F)c2F)c(-c2cncnc2)c1Br [III-005],90,90,100,–,90,–,90,–,90,90,–,–,90,90,90,–,–,–,90
O=C(O)CSc1nn(-c2ccccc2F)c(-c2cccnc2)c1Br [II-017],90,–,100,90,90,90,100,100,90,90,–,–,90,90,–,–,–,90,90
